Assays:
HL-7702 normal cells = details: ref [1], cited from earlier work; for selectivity index factor, IC50 (normal HL-7702 cells)/IC50 (BEL-7404 tumor cells): 48 h; for IC50: HL-7702, 48 h
[1] = system: F32T+H20M (DNA, duplex) CCGCATCTCTACATTCAAGAACTGGCATGCGG/GCCAGTTCTTGAATGTAGAG; experiment: FRET melting; details: 100 mM K+; 10 mM Tris-HCl, pH 7.35; 2.0 μM compound, 1.0 μM DNA
c-kit-1 = system: c-kit-1; parameters: method as in earlier work; details: ref [1], cited from earlier work; for ctDNADC50/c-kit-1DC50: FID selectivity ratio; for c-kit-1DC50: FID
Pu27 G4 = experiment: Fluorescence titration (Stern-Volmer quenching); format: binding; details: Pu27 G4-DNA, compound 20 μM, 100 mM K+
Protocol: (§1) We asked whether chiral platinum(II) complexes 4–6 have the ability to bind to G-quadruplex DNA. To address this, FRET assays, CD spectroscopy, G4-FID assays, and fluorescence titration analysis were performed. […] For G4-HTG21, the ^G4DC50 values of complexes 4–6 were 1.23, 1.26 and 0.99 μM, respectively; while, for G4-Pu27, the ^G4DC50 values were 1.01, 0.89, and 0.82 μM, respectively. In addition, the ^ctDNADC50/^G4DC50 ratio of the HTG21 and Pu27 G4s treated with complexes 4–6 was in the range of 50.54-90.65 and 71.56-110.67 folds, respectively. To further evaluate the binding ability of complexes 4–6 to Pu27 and HTG21G4s, CD spectroscopy and fluorescence titration analysis were performed. […] The quenching ability of complexes 4–6 to HTG21 and Pu27 G4 DNA fluorescence can be quantitatively estimated by their respective quenching constant (Kq), which was derived from the Stern-Volmer quenching equation. […] Finally, the selective binding of complexes 4–6 towards G4 DNA was analyzed by FRET-melting assays. […] In contrast, the ΔTm value for the F32T+H20M duplex DNA in the presence of complexes 4–6 was 1.18, 1.34, and 0.78 °C under the same conditions (Figure 4A). Altogether, our data indicated complexes 4–6, especially complex 6, is the best binder to G4 DNA, which caused DNA complex displaying the highest thermodynamic stability.
Supplementary Figure 26: Fluorescence emission spectra of compounds (20 μM) in 100 mM K+ solution in the absence and
presence of G-quadruplex Pu27 with 4 (A), 5 (B) and 6 (C), respectively. […]

HTG21 G4 = experiment: Fluorescence titration (Stern-Volmer quenching); format: binding, human; details: HTG21 G4-DNA, compound 20 μM, 100 mM K+
Protocol: as §1, with “stability. […]” for “stability.”
Supplementary Figure 25: Fluorescence emission spectra of compounds (20 μM) in 100 mM K+ solution in the absence and
presence of human telomeric G-quadruplex DNA with 4 (A), 5 (B) and 6 (C), respectively.

Pu22 = experiment: FID assay; format: binding; details: for Pu22DC50: FID; for ctDNADC50/Pu22DC50: FID selectivity ratio
[2] = Solubility in water by UV-vis spectroscopy; format: physicochemical; details: H2O
Protocol: We next determined the solubility and stability of complexes 4, 5, and 6 in H2O and TBS buffer by UV-vis spectroscopy. […] TBS buffer (1% DMSO, 100 mM KCl, and 10 mM pH 7.35 Tris-HCl) was used to mimic normal physiological conditions.

[3] = system: HTG21 / G4-HTG21 human telomeric DNA; experiment: CD spectroscopy; format: binding; parameters: key to Extent of change at 290―295 nm (%): “—”represents no obvious changes in the peaks; details: DNA 10 μM, compound 20 μM
Protocol: as §1, with “stability. […]” for “stability.”
Supplementary Figure 21: CD spectra of Human Telomeric DNA (10 μM) in the absence of K+ (10 mM pH 7.35 Tris-
HCl) upon addition of compounds (20 μM). […]
Supplementary Figure 22: CD spectra of Human Telomeric G-quadruplex DNA (10 μM) in the presence of K + (TBS
buffer, containing 1% DMSO, 100 mM KCl, and 10 mM pH 7.35 Tris-HCl) upon addition of compounds (20 μM). […]

Pu27 / G4-Pu27 DNA = experiment: CD spectroscopy; format: binding; parameters: key to Extent of change at 290―295 nm (%): “—”represents no obvious changes in the peaks; details: DNA 10 μM, compound 20 μM; for Extent of change at 250―265 nm (%): given with ↓; for Extent of change at 290―295 nm (%): Pu27 (G4-Pu27)
Protocol: as §1
www.impactjournals.com/oncotarget/ Oncotarget, Supplementary Materials 2017 […]
Supplementary Figure 23: CD spectra of Pu27 DNA (10 μM) in the absence of K+ upon addition of compounds (20 μM).

[4] = G4-HTG21 (presence of K+), given with ↓
[5] = HTG21 (absence of K+), given with ↓

Row | Compound | selectivity index factor, IC50 (normal HL-7702 cells)/IC50 (BEL-7404 tumor cells) (HL-7702 normal cells) | IC50 (HL-7702 normal cells) | ΔTm [1] | ctDNADC50/c-kit-1DC50 (c-kit-1) | c-kit-1DC50 (c-kit-1) | Extent of quenching (%) (Pu27 G4) | Kq (quenching constant, Stern-Volmer) (Pu27 G4) | Extent of quenching (%) (HTG21 G4) | Kq (quenching constant, Stern-Volmer) (HTG21 G4) | Pu22DC50 (Pu22) | ctDNADC50/Pu22DC50 (Pu22) | solubility in water [2] | Extent of change at 250―265 nm (%) [3, 4] | Extent of change at 290―295 nm (%) [3, 4] | Extent of change at 290―295 nm (%) ([3]; HTG21 (absence of K+)) | Extent of change at 250―265 nm (%) [3, 5] | Extent of change at 250―265 nm (%) (Pu27 / G4-Pu27 DNA; G4-Pu27 (presence of K+)) | Extent of change at 290―295 nm (%) (Pu27 / G4-Pu27 DNA) | Extent of change at 250―265 nm (%) (Pu27 / G4-Pu27 DNA; Pu27 (absence of K+))
1 | O=C(NCC(O)CO)c1cnc2c3c(cccc13)-c1ccccc1C2=O.[Cl-].[Cl-].[Pt+2] (racemic) [ligand 1, R/S-(±)-FOA] | > 5.8 | > 100 µM | 1.18 °C | 0.96 | 66.35 µM |  |  |  |  |  |  |  |  |  |  |  |  |  | 
2 | O=C(NC[C@@H](O)CO)c1cnc2c3c(cccc13)-c1ccccc1C2=O.[Cl-].[Cl-].[Pt+2] [ligand 2, R-(+)-FOA] | > 4.9 | > 100 µM | 1.34 °C | < 0.40 | > 100 µM |  |  |  |  |  |  |  |  |  |  |  |  |  | 
3 | O=C(NC[C@H](O)CO)c1cnc2c3c(cccc13)-c1ccccc1C2=O.[Cl-].[Cl-].[Pt+2] [ligand 3, S-(–)-FOA] | 5.3 | 81.4 ± 2.7 µM | 0.78 °C | 36.66 | 2.45 µM |  |  |  |  |  |  |  |  |  |  |  |  |  | 
4 | cis-[PtCl2(R-(+)-FOA)] [complex 5] |  |  |  |  |  | 30.06% | 8.80×10^4 L·mol–1 | 27.21% | 4.36×10^4 L·mol–1 | 1.74 µM | 36.60 | 1000 µg/mL | 52.31% | 9.76% | — | 62.38% | 57.01% | — | 62.63%
5 | cis-[PtCl2(R/S-(±)-FOA)] [complex 4] |  |  |  |  |  | 32.54% | 1.02×10^5 L·mol–1 | 27.34% | 4.60×10^4 L·mol–1 | 7.41 µM | 10.24 | 680 µg/mL | 50.08% | 16.44% | — | 73.35% | 67.47% | — | 72.16%
6 | cis-[PtCl2(S-(–)-FOA)] [complex 6] |  |  |  |  |  | 40.31% | 1.38×10^5 L·mol–1 | 28.42% | 4.65×10^4 L·mol–1 | 1.14 µM | 79.59 | 2000 µg/mL | 56.31% | 19.43% | — | 73.98% | 76.23% | — | 80.88%
